Where a name gives a salt, the structure may show the parent alone.
Assays:
Assay type in all cases: in vivo, mouse (C57BL/6)
[1] = test system: MOG induced EAE; test: Example 1B: laquinimod in combination with DMF in MOG-induced EAE; conditions: Day 1 to 30; for % Inhibition 2: according to MMS; for % Inhibition 2 / % Inhibition 1 / % Inhibition 3: vs vehicle; for % Inhibition 1: according to incidence; for % Inhibition 3: activity according to GMS; for GMS value: group mean score; for MMS value: mean maximal score
[2] = test system: MOG-induced EAE; test: Example 1A: laquinimod alone or in combination with DMF in MOG-induced EAE (present tense)
[3] = test system: MOG induced EAE; test: Example 1C: suboptimal dose of laquinimod combined with MEF or EMF in MOG induced EAE; conditions: for Group Mean Score / Incidence % inhibition / Incidence Total / Mean Disease Duration / Mean Maximal Score / Mean Onset days / Mortality Total % / GMS Inhibition % / MMS Inhibition %: study interrupted on day 21; for GMS Inhibition % / MMS Inhibition %: vs vehicle
[4] = DMF 45 mg/kg gavage bid (90 mg/kg/day)
[5] = laquinimod 5 mg/kg/day gavage (AM) from Day 1
[6] = laquinimod 25 mg/kg/day gavage (AM) from Day 1, positive control
[7] = laquinimod 5 mg/kg/day gavage qd
[8] = laquinimod 10 mg/kg/day gavage qd
[9] = laquinimod 25 mg/kg/day gavage qd
[10] = EMF 135 mg/kg gavage twice a day from Day 1
[11] = EMF 135 mg/kg gavage twice a day from Day 1, listed as EFM
[12] = MEF 90 mg/kg gavage twice a day from Day 1

With `COC(=O)/C=C/C(=O)OC` [DMF, dimethyl fumarate] the Incidence [1, 4] was 13/15, the “Mean Duration” value [1, 4] was 13.4 ± 6.2 days and the “Mean Onset” value [1, 4] was 17.1 ± 6.3 days. The Mortality [1, 4] was 0/15, the “% Inhibition 2” value [1, 4] was 25.7% and the “% Inhibition 1” value [1, 4] was 13.3%. The “% Inhibition 3” value [1, 4] was 33.3%, the GMS value [1, 4] was 1.4 ± 0.9 and the MMS value [1, 4] was 2.6 ± 1.4. The “inhibition of disease severity” value ([2]; DMF 25 mg/kg oral QD alone) was “moderately effective”.

In the case of `CCN(C(=O)c1c(O)c2c(Cl)cccc2n(C)c1=O)c1ccccc1` [Laquinimod, laquinimod], the “Group Mean Score” value [3, 5] is reported as 0.64 ± 0.2, the Incidence % inhibition [3, 5] is reported as 46.7% and the “Incidence Total” value [3, 5] is reported as 8/15. The “Mean Disease Duration” value [3, 5] was 4.0 ± 1.2 days, the “Mean Maximal Score” value [3, 5] was 1.3 ± 0.4 and the “Mean Onset days” value [3, 5] was 17.3 ± 1.24 days. For the same compound, the “Mortality Total %” value [3, 5] was 0%, the Incidence % inhibition [3, 6] was 93.3% and the “Incidence Total” value [3, 6] was 1/15. For the same compound, the “Mean Disease Duration” value [3, 6] was 0.3 ± 0.3 days, the “Mean Maximal Score” value [3, 6] was 0.1 ± 0.06 and the “Mean Onset days” value [3, 6] was 21.5 ± 0.5 days. For the same compound, the “Mortality Total %” value [3, 6] was 0%, the “EAE clinical signs (conclusion)” value ([3]; laquinimod at 25 mg/kg) was “significantly ameliorated EAE clinical signs” and the “efficacy in MOG-induced EAE (conclusion)” value ([3]; laquinimod at 5 and 25 mg/kg) was “dose-dependent efficacy”. The “GMS Inhibition %” value [3, 5] was 34.0%, the “MMS Inhibition %” value [3, 5] was 31.6% and the “GMS Inhibition %” value [3, 6] was 97.9%. The “MMS Inhibition %” value [3, 6] was 94.7%, the “% Inhibition 2” value [1, 7] was 40.0% and the “% Inhibition 2” value [1, 8] was 82.9%. The “% Inhibition 2” value [1, 9] was 100.0%, the “% Inhibition 1” value [1, 7] was 33.3% and the “% Inhibition 1” value [1, 8] was 73.3%. The “% Inhibition 1” value [1, 9] was 100.0%, the “% Inhibition 3” value [1, 7] was 61.9% and the “% Inhibition 3” value [1, 8] was 90.5%. The “% Inhibition 3” value [1, 9] was 100%, the GMS value [1, 7] was 0.8 ± 0.7 and the GMS value [1, 8] was 0.2 ± 0.5. For the same compound, the GMS value [1, 9] was 0.0 ± 0.0, the Incidence [1, 7] was 10/15 and the “Mean Duration” value [1, 7] was 8.0 ± 6.2 days. The “Mean Onset” value [1, 7] was 22.7 ± 6.4 days, the Mortality [1, 7] was 0/15 and the Incidence [1, 8] was 4/15. For the same compound, the “Mean Duration” value [1, 8] was 1.8 ± 3.7 days, the “Mean Onset” value [1, 8] was 28.9 ± 3.8 days and the Mortality [1, 8] was 0/15. The Incidence [1, 9] was 0/15, the “Mean Duration” value [1, 9] was 0.0 ± 0.0 days and the “Mean Onset” value [1, 9] was 0.0 ± 0.0 days. For the same compound, the Mortality [1, 9] was 0/15, the MMS value [1, 7] was 2.1 ± 1.7 and the MMS value [1, 8] was 0.6 ± 0.2. The MMS value [1, 9] was 0.0 ± 0.0 and the “inhibition of disease severity” value ([2]; laquinimod 0.06 mg/kg oral QD alone) was “moderately effective”.

With `CCOC(=O)/C=C/C(=O)OC` [EMF, ethyl methyl fumarate] the “Group Mean Score” value [3, 10] was 0.51 ± 0.2, the Incidence % inhibition [3, 10] was 46.6% and the “Incidence Total” value [3, 10] was 8/15. The “Mean Disease Duration” value [3, 10] was 3.3 ± 0.9 days, the “Mean Maximal Score” value [3, 10] was 1.2 ± 0.38 and the “Mean Onset days” value [3, 10] was 18.4 ± 1.0 days. The “Mortality Total %” value [3, 10] was 0%, the Incidence % inhibition [3, 11] was 46.7% and the “effectiveness in MOG induced EAE (conclusion)” value ([3]; EMF at 135 mg/kg BID alone) was “highly effective”. For the same compound, the “GMS Inhibition %” value [3, 10] was 47.7%, the “MMS Inhibition %” value [3, 10] was 36.8% and the “GMS Inhibition %” value [3, 11] was 47.4%.

`CCOC(=O)/C=C/C(=O)O` [MEF, monoethyl fumarate] was tested, and the “Group Mean Score” value [3, 12] was 1.23 ± 0.2, the Incidence % inhibition [3, 12] was 20% and the “Incidence Total” value [3, 12] was 12/15. For the same compound, the “Mean Disease Duration” value [3, 12] was 7.1 ± 1.0 days, the “Mean Maximal Score” value [3, 12] was 2.3 ± 0.38 and the “Mean Onset days” value [3, 12] was 14.7 ± 1.0 days. The “Mortality Total %” value [3, 12] was 0%, the “alleviation of EAE disease signs (conclusion)” value ([3]; MEF at 90 mg/kg) was “not effective” and the “GMS Inhibition %” value [3, 12] was 26.8%. For the same compound, the “MMS Inhibition %” value [3, 12] was −21.1% and the “GMS Inhibition %” value ([3]; MEF 90 mg/kg gavage twice a day from Day 1, listed as Mono EF) was −26.8%.
